Measurements reported in patent US12054447B2, “PCNA inhibitors” (City of Hope, priority 2015, dated 2024).

Legend:
[1] = tested on: neuroblastoma cell lines; assay: IC50 in Table 3, cell line not stated; format: cell-based; conditions: Homo sapiens
Source text: In addition numerous analogs related to AOH1160 were screened in numerous neuroblastoma cell lines for anti-cancer activity (Table 2). AOH1160 was screened for anti-cancer activity in additional cancer cell lines besides neuroblastoma (Table 3).

[2] = tested on: SK-N-AS; assay: Cell growth, CellTitor-Glo assay, 72 h; format: cell-based; conditions: Homo sapiens
Description: (§1) The human NB cell lines, SK-N-DZ, SK-N-BE(2)c, SK-N-AS, and LAN-5 obtained from the American Type Culture Collection (Rockville, MD), were cultured in DMEM with 10% fetal bovine serum (FBS), 100 units/ml penicillin, and 100 μg/ml streptomycin in the presence of 5% CO2 at 37° C. Human PBMCs from a healthy donor were purchased from Sanguine BioSciences (Valencia, CA) and grown in RPMI1640 with 10% FBS, 100 units/ml penicillin, 100 μg/ml streptomycin, and 10 ng/ml IL-2 in the presence of 5% CO2 at 37° C. Human embryonic progenitor cell line 7SM0032 was acquired from Millipore (Billerica, MA) and grown in the hEPM-1 Media Kit purchased from the same company. The plasmid pCBASce expresses the rare cutting I-SceI meganuclease. The U20S-derived cell lines, DR-GFP and EJ5-GFP, each contain a stably transfected reporter gene for DSB repair mediated by HR and end joining (EJ), respectively. These cell lines were cultured in DMEM medium with 10% FBS at 37° C. in the presence of 5% CO2.
(§2) To measure the effect of the compounds on cell growth, cells were seeded at 3×10^4/ml into a 96-well plate. Once attached, cells were treated with various concentrations of AOH1160 for 72 h. Cell growth was measured by the CellTitor-Glo assay (Promega, Madison, WI) according to the manufacturer's instructions. To measure apoptosis, cells were seeded at 1×10^5/ml onto a chamber slide. Once attached, cells were treated with the 500 nM AOH1160 for 24 h. Cells were fixed and analyzed by a TUNEL assay using the TMR red in situ cell death detection kit (Roche Diagnostics, Indianapolis, IN).

[3] = tested on: NB cell lines; assay: Cell viability assay on NB cell lines; format: cell-based, human; conditions: Homo sapiens; multiple NB cell lines; read-out: IC50 range over NB cell lines
Description: as §2
To identify small molecule compounds that target the PCNA and FEN1 interface, we started with known crystal structures of the PCNA/FEN1 complex that are available from the RCSB protein database. To improve the likelihood of identifying novel small molecules that specifically target caPCNA, we focused our virtual screen on the binding pocket in PCNA delineated by residues L126 and Y133 and screened databases consisting of more than 6.8 million chemical structures available at the AMRI. A set of 57 compounds identified by the virtual screen was acquired and further tested in a cell viability assay. A compound (AOH39) was selected for further development due to its anti-cancer activity and selectivity.

[4] = tested on: PBMC; assay: Cell growth, CellTitor-Glo assay, 72 h; format: cell-based, human
Description: as §1, §2

[5] = tested on: 7SM0032; assay: Cell growth, CellTitor-Glo assay, 72 h; format: cell-based, human; conditions: human neural crest stem cells (7SM0032)
Description: as §1, §2

[6] = tested on: SK-N-DZ; assay: Cell growth, CellTitor-Glo assay, 72 h; format: cell-based; conditions: Homo sapiens
Description: as §1, §2

[7] = tested on: SK-N-BE(2)c; assay: Cell growth, CellTitor-Glo assay, 72 h; format: cell-based; conditions: Homo sapiens
Description: as §1, §2

SMILES	IC50 [1] [µM]	IC50 [2] [µM]	other results
O=C(CNC(=O)c1cccc2ccccc12)Nc1cccc(Oc2ccncc2)c1 [#1161]	21.6	21.6	–
O=C(CNC(=O)c1cccc2ccccc12)Nc1ccccc1Oc1ccncc1 [#1162]	> 50	> 50	–
O=C(CNC(=O)c1nccc2ccccc12)Nc1ccccc1Oc1ccccc1 [#1165]	35	35	–
O=C(CNC(=O)c1nccc2ccccc12)Nc1cccc(Oc2ccncc2)c1 [#1166]	34	> 30	–
O=C(CNC(=O)c1nccc2ccccc12)Nc1ccccc1Oc1ccncc1 [#1167]	4.2	–	–
O=C(CNC(=O)c1cncc2ccccc12)Nc1ccccc1Oc1ccccc1 [#1175]	> 30	> 30	–
O=C(CNC(=O)c1cncc2ccccc12)Nc1cccc(Oc2ccncc2)c1 [#1176]	–	> 30	–
O=C(CNC(=O)c1cncc2ccccc12)Nc1ccccc1Oc1ccncc1 [#1177]	> 30	–	–
O=C(CNC(=O)c1cccc2ccccc12)Nc1ccc(Oc2ccncc2)cc1 [#1178]	1.1	1.1	–
O=C(CNC(=O)c1cccc2ccccc12)Nc1ccccc1Cc1ccccc1 [AOH39, N-(2-((2-benzylphenyl)amino)-2-oxoethyl)-1-naphthamide, reference compound]	–	–	IC50 [3]: 1.3 to 2.8 µM; IC50 ([4]; human peripheral blood mononuclear cells (PBMC)): 15.4 µM; IC50 [5]: ~100 µM
O=C(CNC(=O)c1nccc2ccccc12)Nc1ccc(Oc2ccncc2)cc1 [AOH1179]	> 30	> 30	–
O=C(CNC(=O)c1cncc2ccccc12)Nc1ccc(Oc2ccncc2)cc1 [AOH1180]	> 30	> 30	–
O=C(CNC(=O)c1cccc2ccccc12)Nc1ccc(Cl)cc1Oc1ccccc1 [PCNA4]	–	0.185	IC50 [6]: 0.447 µM; IC50 [7]: 0.5 µM; IC50 ([4]; Homo sapiens, PBMC (non-malignant)): > 20 µM
